This note sets out measurements from patent US8598365B2, “Herbicides” (Syngenta Limited, priority 2007, dated 2013).

Type in all cases: in vivo
The subject of assay [1] is Echinochloa crus-galli (ECHCG). Kind of assay: Example B pre-emergence herbicidal activity. Conditions: 312 h, rate 250 g/ha, evaluated after 13 days, read-out: Pre-Emergence Activity ECHCG (100=total damage to plant; 0=no damage to plant). The method, then: (§1) Seeds of a variety of test species were sown in standard soil in pots. After cultivation for one day (pre-emergence) or after 8 days cultivation (post-emergence) under controlled conditions in a glasshouse (at 24/16° C., day/night; 14 hours light; 65% humidity), the plants were sprayed with an aqueous spray solution derived from the formulation of the technical active ingredient in acetone/water (50:50) solution containing 0.5% Tween 20 (polyoxyethelyene sorbitan monolaurate, CAS RN 9005-64-5).
(§2) The test plants were then grown in a glasshouse under controlled conditions in a glasshouse (at 24/16° C., day/night; 14 hours light; 65% humidity) and watered twice daily. After 13 days for pre and post-emergence, the test was evaluated (100=total damage to plant; 0=no damage to plant).
(§3) Alopecurus myosuroides (ALOMY), Avena fatua (AVEFA), Setaria faberi (SETFA), Echinochloa crus-galli (ECHCG), Solanum nigrum (SOLNI) and Amaranthus retoflexus (AMARE)

Assay [2] concerns Setaria faberi (SETFA). In words: Example B pre-emergence herbicidal activity. Conditions: 312 h, rate 250 g/ha, evaluated after 13 days, read-out: Pre-Emergence Activity SETFA (100=total damage to plant; 0=no damage to plant). On the procedure: as §1, §2, §3
Assay [3] deals with Alopecurus myosuroides (ALOMY). In words: Example B pre-emergence herbicidal activity. Conditions: 312 h, rate 250 g/ha, evaluated after 13 days, read-out: Pre-Emergence Activity ALOMY (100=total damage to plant; 0=no damage to plant). The method, then: as §1, §2, §3
Assay [4] concerns Avena fatua (AVEFA). Kind of assay: Example B pre-emergence herbicidal activity. Conditions: 312 h, rate 250 g/ha, evaluated after 13 days, read-out: Pre-Emergence Activity AVEFA (100=total damage to plant; 0=no damage to plant). The method, then: as §1, §2, §3
Assay [5] relates to Amaranthus retoflexus (AMARE). Kind of assay: Example B pre-emergence herbicidal activity. The following applies: Amaranthus retroflexus, 312 h, rate 250 g/ha, evaluated after 13 days, read-out: Pre-Emergence Activity AMARE (100=total damage to plant; 0=no damage to plant). The method, then:
as §1, §2, §3

The test system of assay [6] is Echinochloa crus-galli (ECHCG). In words: Example B post-emergence herbicidal activity. The following applies: 312 h, rate 250 g/ha, evaluated after 13 days, read-out: Post-emergence activity ECHCG (100=total damage to plant; 0=no damage to plant). The method, then:
as §1, §2, §3

In assay [7] the test system is Setaria faberi (SETFA). Kind of assay: Example B post-emergence herbicidal activity. Conditions: 312 h, rate 250 g/ha, evaluated after 13 days, read-out: Post-emergence activity SETFA (100=total damage to plant; 0=no damage to plant). The method, then:
as §1, §2, §3

For assay [8], the system named is Alopecurus myosuroides (ALOMY). Kind of assay: Example B post-emergence herbicidal activity. The following applies: 312 h, rate 250 g/ha, evaluated after 13 days, read-out: Post-emergence activity ALOMY (100=total damage to plant; 0=no damage to plant). The method, then: as §1, §2, §3
Assay [9] relates to Avena fatua (AVEFA). In words: Example B post-emergence herbicidal activity. The following applies: 312 h, rate 250 g/ha, evaluated after 13 days, read-out: Post-emergence activity AVEFA (100=total damage to plant; 0=no damage to plant). On the procedure: as §1, §2, §3
Assay [10] relates to Amaranthus retoflexus (AMARE). In words: Example B post-emergence herbicidal activity. The following applies: Amaranthus retroflexus, 312 h, rate 250 g/ha, evaluated after 13 days, read-out: Post-emergence activity AMARE (100=total damage to plant; 0=no damage to plant). On the procedure: as §1, §2, §3

Turning to `Cc1sc(-c2cccs2)nc1C1C(=O)[C@@H]2CC[C@@H](C2)C1=O` (stereo partly drawn) [Compound T2], the pest or weed control at 250 g/ha in [1] was found to be 0%; with Setaria faberi (SETFA) [2] it was 50%; in assay [3] it was 0%; in the assay on Avena fatua (AVEFA) [4] it was 0%; in assay [5] it was 0%; in assay [6] it was 30%. Moreover, the pest or weed control at 250 g/ha in the assay on Setaria faberi (SETFA) [7] worked out at 70%; in assay [8], 0%; in the assay with Avena fatua (AVEFA) [9], 0%; in assay [10], 0%.
For `Cc1sc(-c2ccc(Br)cn2)nc1C1C(=O)[C@@H]2CC[C@@H](C2)C1=O` (stereo partly drawn) [Compound T35], the pest or weed control at 250 g/ha in assay [1] came to 90%; in the assay with Setaria faberi (SETFA) [2] it was 100%; in [3], 30%; with Avena fatua (AVEFA) [4], 0%; in assay [5], 0%; in assay [6], 100%. Besides, the pest or weed control at 250 g/ha in the assay on Setaria faberi (SETFA) [7] is 100%; in assay [8], 100%; with Avena fatua (AVEFA) [9], 80%; in assay [10], 0%.
For `CCc1sc(-c2ccc(SC)cc2)nc1C1C(=O)[C@@H]2CC[C@@H](C2)C1=O` (stereo partly drawn) [Compound T83], the pest or weed control at 250 g/ha in assay [1] was found to be 100%; in the assay on Setaria faberi (SETFA) [2], 90%; in assay [3], 50%; with Avena fatua (AVEFA) [4], 0%; in assay [5], 0%; in [6], 100%. Also, the pest or weed control at 250 g/ha in the assay on Setaria faberi (SETFA) [7] amounted to 100%; in assay [8], 60%; with Avena fatua (AVEFA) [9] it was 100%; in assay [10], 0%.
With `CCc1sc(-c2cnc(Cl)cc2C)nc1C1C(=O)[C@@H]2CC[C@@H](C2)C1=O` (stereo partly drawn) [Compound T110], the pest or weed control at 250 g/ha came to 60% in assay [1]; 100% in the assay on Setaria faberi (SETFA) [2]; 30% in [3]; 30% with Avena fatua (AVEFA) [4]; 20% in [5]; 90% in [6]. The pest or weed control at 250 g/ha with Setaria faberi (SETFA) [7] is 100%; in [8], 60%; with Avena fatua (AVEFA) [9], 70%; in assay [10], 0%.
Turning to `Cc1cc(Br)ccc1-c1nc(C2=C(OC(=O)C3CC3)[C@@H]3CC[C@@H](C3)C2=O)c(C)s1` [Compound P13], the pest or weed control at 250 g/ha in assay [1] turned out to be 50%; in the assay with Setaria faberi (SETFA) [2], 100%; in [3], 70%; with Avena fatua (AVEFA) [4], 100%; in assay [5] it was 0%; in assay [6] it was 100%. Also, the pest or weed control at 250 g/ha with Setaria faberi (SETFA) [7] was 100%; in assay [8] it was 90%; in the assay with Avena fatua (AVEFA) [9], 90%; in [10], 0%.
On to `Cc1sc(-c2ccc(OC(F)F)cc2Cl)nc1C1=C(OC(=O)C(C)(C)C)[C@@H]2CC[C@@H](C2)C1=O` [Compound P17], for which the pest or weed control at 250 g/ha in assay [1] worked out at 100%; with Setaria faberi (SETFA) [2], 100%; in [3] it was 80%; in the assay on Avena fatua (AVEFA) [4], 50%; in assay [5] it was 0%; in assay [6], 100%. Also, the pest or weed control at 250 g/ha with Setaria faberi (SETFA) [7] was 100%; in assay [8], 90%; with Avena fatua (AVEFA) [9], 80%; in assay [10], 0%.
`O=C1C(c2nc(-c3ccc(Cl)cc3)sc2Cl)C(=O)[C@H]2CC[C@@H]1C2` (stereo partly drawn) [Compound T55]: the pest or weed control at 250 g/ha in assay [1] was 100%; with Setaria faberi (SETFA) [2] it was 100%; in assay [3] it was 100%; in the assay with Avena fatua (AVEFA) [4], 100%; in assay [5], 0%; in [6], 100%. Moreover, the pest or weed control at 250 g/ha with Setaria faberi (SETFA) [7] was found to be 100%; in [8], 100%; in the assay on Avena fatua (AVEFA) [9], 100%; in [10], 0%.
As to `CC(C)(C)C(=O)OC1=C(c2csc(-c3ccc(Cl)cc3)n2)C(=O)[C@@H]2CC[C@H]1C2` [Compound P22], the pest or weed control at 250 g/ha was found to be 0% in [1]; 30% in the assay with Setaria faberi (SETFA) [2]; 0% in assay [3]; 0% in the assay on Avena fatua (AVEFA) [4]; 0% in assay [5]; 20% in assay [6]. Besides, the pest or weed control at 250 g/ha in the assay with Setaria faberi (SETFA) [7] was 70%; in [8], 0%; with Avena fatua (AVEFA) [9], 0%; in [10], 0%.
`Cc1sc(-c2ccc(OC(F)F)cc2Cl)nc1C1C(=O)[C@@H]2CC[C@@H](C2)C1=O` (stereo partly drawn) [Compound T84]: the pest or weed control at 250 g/ha was 100% in [1]; 100% with Setaria faberi (SETFA) [2]; 70% in assay [3]; 40% in the assay on Avena fatua (AVEFA) [4]; 0% in [5]; 100% in assay [6]. For the same compound, the pest or weed control at 250 g/ha with Setaria faberi (SETFA) [7] amounted to 100%; in [8], 90%; in the assay on Avena fatua (AVEFA) [9], 70%; in assay [10], 40%.
As for `Cc1sc(-c2ccc([S+](C)[O-])cc2)nc1C1C(=O)[C@@H]2CC[C@@H](C2)C1=O` (stereo partly drawn) [Compound T82], the pest or weed control at 250 g/ha in assay [1] is 40%; in the assay on Setaria faberi (SETFA) [2], 80%; in assay [3], 0%; in the assay with Avena fatua (AVEFA) [4], 0%; in assay [5], 0%; in assay [6] it was 100%. The pest or weed control at 250 g/ha in the assay with Setaria faberi (SETFA) [7] turned out to be 100%; in assay [8], 20%; with Avena fatua (AVEFA) [9] it was 0%; in assay [10], 30%.
For `Cc1sc(-c2ccc(C#N)cc2)nc1C1C(=O)[C@@H]2CC[C@@H](C2)C1=O` (stereo partly drawn) [Compound T65], the pest or weed control at 250 g/ha in assay [1] was determined as 100%; with Setaria faberi (SETFA) [2], 100%; in assay [3] it was 50%; with Avena fatua (AVEFA) [4], 20%; in assay [5], 20%; in assay [6], 100%. Besides, the pest or weed control at 250 g/ha with Setaria faberi (SETFA) [7] turned out to be 100%; in assay [8], 50%; in the assay on Avena fatua (AVEFA) [9] it was 70%; in [10], 70%.
`CC(=O)OC1=C(c2nc(-c3ccc(Cl)cc3)ncc2C)C(=O)[C@H]2CC[C@@H]1C2` [Compound P18]: the pest or weed control at 250 g/ha in assay [1] was 70%; in the assay on Setaria faberi (SETFA) [2] it was 60%; in assay [3] it was 20%; in the assay with Avena fatua (AVEFA) [4] it was 0%; in [5], 0%; in assay [6] it was 80%. Further, the pest or weed control at 250 g/ha came out at 90% with Setaria faberi (SETFA) [7], 10% in assay [8], 0% in the assay on Avena fatua (AVEFA) [9] and 40% in assay [10].
